This is an account of results in PMC5933782, “Molecular structures of cdc2-like kinases in complex with a new inhibitor chemotype” (PLoS ONE, 2018).

What all share (assay): radiometric protein kinase assay
For experiment [1], the target named is DYRK1B (Homo sapiens, UniProt Q9Y463). The experiment is classed as biochemical. The following applies: 15 μmol/L ATP; read-out: IC50 DYRK 1B.
The target in experiment [2] is CLK2 (Mus musculus, UniProt O35491).
The target of experiment [3] is DYRK1A (Homo sapiens, UniProt Q13627). It counts as biochemical. The following applies: 15 μmol/L ATP; read-out: IC50 DYRK 1A.
The target in experiment [4] is CDK9/cyclin T (Homo sapiens, UniProt P50750).
Experiment [5] addresses T1, DYRK3 (Homo sapiens, UniProt O43781).
T1 sequence (O43781 1-588): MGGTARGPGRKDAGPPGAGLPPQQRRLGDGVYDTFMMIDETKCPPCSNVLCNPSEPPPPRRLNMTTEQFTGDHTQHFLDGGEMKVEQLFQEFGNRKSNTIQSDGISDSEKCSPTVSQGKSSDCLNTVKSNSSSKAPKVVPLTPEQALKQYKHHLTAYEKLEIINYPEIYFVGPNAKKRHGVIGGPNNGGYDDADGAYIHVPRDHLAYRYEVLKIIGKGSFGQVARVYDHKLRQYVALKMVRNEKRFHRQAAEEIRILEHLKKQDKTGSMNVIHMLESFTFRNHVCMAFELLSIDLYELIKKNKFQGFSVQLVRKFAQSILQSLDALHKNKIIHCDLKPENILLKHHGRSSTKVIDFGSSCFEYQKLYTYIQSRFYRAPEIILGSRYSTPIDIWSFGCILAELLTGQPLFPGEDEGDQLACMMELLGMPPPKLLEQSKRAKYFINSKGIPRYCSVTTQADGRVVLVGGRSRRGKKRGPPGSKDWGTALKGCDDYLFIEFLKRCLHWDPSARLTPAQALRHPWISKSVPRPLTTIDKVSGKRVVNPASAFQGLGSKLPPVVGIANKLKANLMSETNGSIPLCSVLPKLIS
The experiment is classed as biochemical. The following applies: 15 μmol/L ATP; read-out: IC50 DYRK 3.

Experiment [6] concerns the target GSK-3. It counts as biochemical, porcine. The following applies: 15 μmol/L ATP; read-out: IC50 GSK3.
Experiment [7] addresses T2, CDK2/cyclin A (Homo sapiens, UniProt P24941).
T2 construct: made in house
It counts as biochemical. The following applies: 15 μmol/L ATP; read-out: IC50 CDK2/cyclinA.

The target in experiment [8] is CK1δ/ε. The experiment is classed as biochemical, porcine. The following applies: 15 μmol/L ATP; read-out: IC50 CK1.
In experiment [9] the target is T3, DYRK2 (Homo sapiens, UniProt Q92630).
T3 sequence (Q92630 1-601): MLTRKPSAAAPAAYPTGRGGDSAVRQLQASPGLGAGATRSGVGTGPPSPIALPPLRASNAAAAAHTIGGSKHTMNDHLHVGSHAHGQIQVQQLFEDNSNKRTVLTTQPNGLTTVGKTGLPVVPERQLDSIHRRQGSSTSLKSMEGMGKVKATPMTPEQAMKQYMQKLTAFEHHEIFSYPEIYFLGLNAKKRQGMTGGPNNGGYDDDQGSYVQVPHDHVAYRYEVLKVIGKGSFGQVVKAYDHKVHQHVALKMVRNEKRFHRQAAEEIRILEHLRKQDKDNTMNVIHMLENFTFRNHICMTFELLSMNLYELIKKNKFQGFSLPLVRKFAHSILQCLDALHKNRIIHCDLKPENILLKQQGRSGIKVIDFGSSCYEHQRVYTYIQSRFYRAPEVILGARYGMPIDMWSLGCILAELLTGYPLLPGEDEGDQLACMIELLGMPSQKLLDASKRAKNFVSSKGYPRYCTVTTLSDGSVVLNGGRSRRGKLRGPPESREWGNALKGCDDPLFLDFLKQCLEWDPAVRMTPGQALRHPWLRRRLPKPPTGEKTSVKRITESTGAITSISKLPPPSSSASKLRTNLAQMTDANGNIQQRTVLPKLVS
It counts as biochemical. The following applies: 15 μmol/L ATP; read-out: IC50 DYRK 2.

Sequence of CLK2 (O35491 whole entry): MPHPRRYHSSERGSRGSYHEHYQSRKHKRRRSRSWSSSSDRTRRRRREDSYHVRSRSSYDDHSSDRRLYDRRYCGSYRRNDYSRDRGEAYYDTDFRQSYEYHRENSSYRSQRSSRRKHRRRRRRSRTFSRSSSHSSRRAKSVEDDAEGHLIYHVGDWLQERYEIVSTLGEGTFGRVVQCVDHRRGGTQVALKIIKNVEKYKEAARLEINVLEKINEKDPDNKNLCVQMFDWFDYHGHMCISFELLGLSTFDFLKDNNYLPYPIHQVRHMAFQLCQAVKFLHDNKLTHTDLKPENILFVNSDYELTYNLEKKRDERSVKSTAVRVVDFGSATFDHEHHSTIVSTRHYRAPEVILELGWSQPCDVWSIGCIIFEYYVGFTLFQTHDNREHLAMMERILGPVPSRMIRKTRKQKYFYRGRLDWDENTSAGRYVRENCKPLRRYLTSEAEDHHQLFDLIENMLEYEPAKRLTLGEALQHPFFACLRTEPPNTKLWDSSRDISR
Sequence of DYRK1B (Q9Y463 whole entry): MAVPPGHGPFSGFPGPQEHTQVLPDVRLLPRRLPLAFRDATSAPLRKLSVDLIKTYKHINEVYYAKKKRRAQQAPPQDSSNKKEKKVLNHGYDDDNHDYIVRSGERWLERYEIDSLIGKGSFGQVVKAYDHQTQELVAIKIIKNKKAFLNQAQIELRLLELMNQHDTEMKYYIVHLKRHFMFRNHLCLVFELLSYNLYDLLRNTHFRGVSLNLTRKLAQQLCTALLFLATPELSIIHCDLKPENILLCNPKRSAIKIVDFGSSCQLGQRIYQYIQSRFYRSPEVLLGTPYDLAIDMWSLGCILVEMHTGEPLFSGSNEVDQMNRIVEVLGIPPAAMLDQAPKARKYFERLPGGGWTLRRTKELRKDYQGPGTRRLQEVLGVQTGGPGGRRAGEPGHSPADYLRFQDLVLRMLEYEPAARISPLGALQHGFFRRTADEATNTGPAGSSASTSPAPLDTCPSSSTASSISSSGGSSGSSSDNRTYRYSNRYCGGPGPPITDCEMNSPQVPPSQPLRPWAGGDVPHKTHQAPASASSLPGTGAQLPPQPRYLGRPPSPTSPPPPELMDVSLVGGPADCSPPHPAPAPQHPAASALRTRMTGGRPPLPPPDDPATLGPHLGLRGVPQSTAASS
Sequence of CDK9/cyclin T (P50750 whole entry): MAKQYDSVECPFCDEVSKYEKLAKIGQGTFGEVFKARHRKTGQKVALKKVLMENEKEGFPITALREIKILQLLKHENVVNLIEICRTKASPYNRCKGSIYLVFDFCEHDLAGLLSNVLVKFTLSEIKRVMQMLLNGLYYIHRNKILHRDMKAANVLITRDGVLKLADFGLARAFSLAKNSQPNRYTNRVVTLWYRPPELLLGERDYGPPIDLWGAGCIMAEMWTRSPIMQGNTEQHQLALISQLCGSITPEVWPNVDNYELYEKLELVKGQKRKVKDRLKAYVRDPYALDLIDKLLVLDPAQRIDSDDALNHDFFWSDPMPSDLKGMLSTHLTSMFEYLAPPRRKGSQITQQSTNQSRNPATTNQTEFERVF
Sequence of CDK9/cyclin T (O60563 whole entry partner): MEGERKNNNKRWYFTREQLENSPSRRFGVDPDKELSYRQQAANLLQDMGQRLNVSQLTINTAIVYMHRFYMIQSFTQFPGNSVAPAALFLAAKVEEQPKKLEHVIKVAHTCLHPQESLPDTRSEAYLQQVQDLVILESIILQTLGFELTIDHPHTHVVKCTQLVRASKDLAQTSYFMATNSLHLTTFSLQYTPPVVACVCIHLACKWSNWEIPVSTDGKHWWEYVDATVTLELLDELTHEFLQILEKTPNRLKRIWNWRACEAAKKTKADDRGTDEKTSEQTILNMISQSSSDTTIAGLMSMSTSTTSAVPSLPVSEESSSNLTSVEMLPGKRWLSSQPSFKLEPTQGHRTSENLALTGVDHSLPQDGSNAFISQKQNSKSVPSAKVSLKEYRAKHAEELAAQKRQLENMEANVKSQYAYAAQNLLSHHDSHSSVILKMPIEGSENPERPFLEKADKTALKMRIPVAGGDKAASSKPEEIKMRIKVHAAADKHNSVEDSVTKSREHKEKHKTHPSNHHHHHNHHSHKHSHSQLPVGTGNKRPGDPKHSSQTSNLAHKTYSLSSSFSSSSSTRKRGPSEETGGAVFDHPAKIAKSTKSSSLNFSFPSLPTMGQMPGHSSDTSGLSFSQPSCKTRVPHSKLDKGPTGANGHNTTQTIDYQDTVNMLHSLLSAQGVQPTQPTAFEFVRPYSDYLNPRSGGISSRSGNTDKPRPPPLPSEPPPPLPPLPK

On to `O=C1NCc2ccc3c(-c4cccc(Cl)c4)c[nH]c3c21` [8c, 3-(3-Chlorophenyl)-6,7-dihydropyrrolo[3,4-g]indol-8(1H)-one], for which the IC50 in experiment [1] was greater than 10 µM; in experiment [2], 0.51 µM; in experiment [3] it was greater than 10 µM; in [4], greater than 10 µM; in experiment [5] it was greater than 10 µM; in experiment [6], greater than 10 µM. Further, the IC50 in experiment [7], in [8] and in experiment [9] was greater than 10 µM throughout.
